Reference: ChEMBL document CHEMBL3885861, “Open TG-GATES”

Species: Rattus norvegicus
Experiment: Open TG-GATES - Regimen: Daily Repeat
Assay type: toxicity, organism-based, Sprague-Dawley
Set-up: regimen Daily Repeat, gender Male, age 6 weeks
Conditions: in vivo, iv, 0 mg/kg, route intravenous injection, dose level Control; for KIDNEY_L / KIDNEY_R / KIDNEY_TOTAL: tissue Kidney
[1] = 72 h, tissue Plasma, time 3 day
[2] = […], tissue Plasma, time 14 day
[3] = […], tissue Plasma, time 28 day

GENTAMICIN
TERMINAL_BW (72 h, time 3 day): 231.1 g | APTT (72 h, tissue Blood, time 3 day): 23.2 s | Bas (72 h, tissue Blood, time 3 day): 0% | Eos (72 h, tissue Blood, time 3 day): 1% | Fbg (72 h, tissue Blood, time 3 day): 286.6 mg/dL | Ht (72 h, tissue Blood, time 3 day): 37.6% | Lym (72 h, tissue Blood, time 3 day): 72.8% | MCH (72 h, tissue Blood, time 3 day): 21.1 pg | MCHC (72 h, tissue Blood, time 3 day): 34.9% | MCV (72 h, tissue Blood, time 3 day): 60.6 fL | Mono (72 h, tissue Blood, time 3 day): 3.2% | Neu (72 h, tissue Blood, time 3 day): 21.6% | PT (72 h, tissue Blood, time 3 day): 16.9 s | Plat (72 h, tissue Blood, time 3 day): 119.1 x10_4/uL | RBC (72 h, tissue Blood, time 3 day): 621 x10_4/ul | Ret (72 h, tissue Blood, time 3 day): 5.8% | WBC (72 h, tissue Blood, time 3 day): 105.4 x10_2/uL | KIDNEY_L (72 h, time 3 day): 1.1 g | KIDNEY_R (72 h, time 3 day): 1 g | KIDNEY_TOTAL (72 h, time 3 day): 2.1 g | ALP [1]: 1838 IU/L | ALT [1]: 41.8 IU/L | AST [1]: 70.2 IU/L | BUN [1]: 16.2 mg/dL | CRE [1]: 0.2 mg/dL | DBIL [1]: 0 mg/dL | IP [1]: 6.9 mg/dL | K [1]: 4.5 meq/L | LDH [1]: 157.2 IU/L | Na [1]: 139.6 meq/L | PL [1]: 147.8 mg/dL | RALB [1]: 3 g/dL | TBIL [1]: 0.006 mg/dL | TC [1]: 72.8 mg/dL | TG [1]: 107.6 mg/dL | TP [1]: 5.5 g/dL | gamma-GTP [1]: 1.6 IU/L | TERMINAL_BW ([…], time 7 day): 261.2 g | TERMINAL_BW ([…], time 14 day): 307.6 g | TERMINAL_BW ([…], time 28 day): 392.7 g | APTT ([…], tissue Blood, time 7 day): 22.1 s | Bas ([…], tissue Blood, time 7 day): 0% | Eos ([…], tissue Blood, time 7 day): 0.8% | Fbg ([…], tissue Blood, time 7 day): 273.2 mg/dL | Ht ([…], tissue Blood, time 7 day): 37.1% | Lym ([…], tissue Blood, time 7 day): 80% | MCH ([…], tissue Blood, time 7 day): 20.6 pg | MCV ([…], tissue Blood, time 7 day): 58.5 fL | Mono ([…], tissue Blood, time 7 day): 3% | Neu ([…], tissue Blood, time 7 day): 15.5% | PT ([…], tissue Blood, time 7 day): 16 s | Plat ([…], tissue Blood, time 7 day): 118.1 x10_4/uL | RBC ([…], tissue Blood, time 7 day): 636.2 x10_4/ul | Ret ([…], tissue Blood, time 7 day): 4.1% | WBC ([…], tissue Blood, time 7 day): 124.9 x10_2/uL | APTT ([…], tissue Blood, time 14 day): 23 s | Bas ([…], tissue Blood, time 14 day): 0% | Eos ([…], tissue Blood, time 14 day): 0.8% | Fbg ([…], tissue Blood, time 14 day): 267.8 mg/dL | Ht ([…], tissue Blood, time 14 day): 40.2% | Lym ([…], tissue Blood, time 14 day): 78% | MCH ([…], tissue Blood, time 14 day): 21 pg | MCHC ([…], tissue Blood, time 14 day): 35.7% | MCV ([…], tissue Blood, time 14 day): 58.8 fL | Mono ([…], tissue Blood, time 14 day): 2.6% | Neu ([…], tissue Blood, time 14 day): 17.6% | PT ([…], tissue Blood, time 14 day): 16.2 s | Plat ([…], tissue Blood, time 14 day): 123.5 x10_4/uL | RBC ([…], tissue Blood, time 14 day): 684.8 x10_4/ul | Ret ([…], tissue Blood, time 14 day): 4% | WBC ([…], tissue Blood, time 14 day): 103.9 x10_2/uL | APTT ([…], tissue Blood, time 28 day): 24.6 s | Bas ([…], tissue Blood, time 28 day): 0% | Eos ([…], tissue Blood, time 28 day): 1.2% | Fbg ([…], tissue Blood, time 28 day): 290.2 mg/dL | Hb ([…], tissue Blood, time 28 day): 15.4 g/dL | Ht ([…], tissue Blood, time 28 day): 43.3% | Lym ([…], tissue Blood, time 28 day): 83% | MCHC ([…], tissue Blood, time 28 day): 35.5% | MCV ([…], tissue Blood, time 28 day): 57.6 fL | Mono ([…], tissue Blood, time 28 day): 2% | Plat ([…], tissue Blood, time 28 day): 102.2 x10_4/uL | RBC ([…], tissue Blood, time 28 day): 752 x10_4/ul | Ret ([…], tissue Blood, time 28 day): 2.3% | WBC ([…], tissue Blood, time 28 day): 107.5 x10_2/uL | KIDNEY_L ([…], time 7 day): 1.1 g | KIDNEY_R ([…], time 7 day): 1.1 g | KIDNEY_TOTAL ([…], time 7 day): 2.2 g | KIDNEY_L ([…], time 14 day): 1.2 g | KIDNEY_R ([…], time 14 day): 1.2 g | KIDNEY_TOTAL ([…], time 14 day): 2.4 g | KIDNEY_L ([…], time 28 day): 1.4 g | KIDNEY_R ([…], time 28 day): 1.3 g | KIDNEY_TOTAL ([…], time 28 day): 2.7 g | LIVER ([…], tissue Liver, time 28 day): 15.2 g | ALP ([…], tissue Plasma, time 7 day): 1702.5 IU/L | ALT ([…], tissue Plasma, time 7 day): 40.5 IU/L | AST ([…], tissue Plasma, time 7 day): 72.2 IU/L | BUN ([…], tissue Plasma, time 7 day): 17 mg/dL | CRE ([…], tissue Plasma, time 7 day): 0.2 mg/dL | DBIL ([…], tissue Plasma, time 7 day): 0 mg/dL | GLC ([…], tissue Plasma, time 7 day): 214 mg/dL | IP ([…], tissue Plasma, time 7 day): 6.8 mg/dL | K ([…], tissue Plasma, time 7 day): 4.4 meq/L | LDH ([…], tissue Plasma, time 7 day): 207.2 IU/L | PL ([…], tissue Plasma, time 7 day): 135.2 mg/dL | RALB ([…], tissue Plasma, time 7 day): 2.9 g/dL | TBIL ([…], tissue Plasma, time 7 day): 0.005 mg/dL | TC ([…], tissue Plasma, time 7 day): 68.5 mg/dL | TG ([…], tissue Plasma, time 7 day): 94.5 mg/dL | TP ([…], tissue Plasma, time 7 day): 5.4 g/dL | gamma-GTP ([…], tissue Plasma, time 7 day): 1.5 IU/L | ALP [2]: 1249.2 IU/L | ALT [2]: 33.4 IU/L | AST [2]: 61.6 IU/L | CRE [2]: 0.2 mg/dL | DBIL [2]: 0 mg/dL | GLC [2]: 198.6 mg/dL | IP [2]: 7 mg/dL | K [2]: 4.7 meq/L | PL [2]: 140.8 mg/dL | RALB [2]: 3 g/dL | TBIL [2]: 0.002 mg/dL | TC [2]: 63.2 mg/dL | TG [2]: 154 mg/dL | TP [2]: 5.6 g/dL | gamma-GTP [2]: 2 IU/L | ALP [3]: 976 IU/L | ALT [3]: 34.8 IU/L | AST [3]: 58.8 IU/L | BUN [3]: 18.2 mg/dL | CRE [3]: 0.2 mg/dL | DBIL [3]: 0 mg/dL | GLC [3]: 190.8 mg/dL | IP [3]: 6.5 mg/dL | K [3]: 4.1 meq/L | LDH [3]: 115.4 IU/L | PL [3]: 135.6 mg/dL | RALB [3]: 3 g/dL | TBIL [3]: 0.004 mg/dL
